Results as given in ChEMBL document CHEMBL4339185 (Eur J Med Chem, 2019).
≈ marks a conversion by molar mass, not a printed value.

Key:
[1] = Solubility of the compound in water at pH 7 by UV-vis spectrophotometric analysis; assay type: physicochemical
Enterococcus faecalis = experiment: Antimicrobial activity against Enterococcus faecalis ATCC 29212 incubated for 18 hrs by serial microdilution method; assay type: functional; details: ATCC 29212, 18 h
Escherichia coli = experiment: Antimicrobial activity against Escherichia coli ATCC 25922 incubated for 18 hrs by serial microdilution method; assay type: functional; details: ATCC 25922, 18 h
Staphylococcus aureus [2] = experiment: Antimicrobial activity against MLSB-resistant Staphylococcus aureus incubated for 18 hrs by serial microdilution method; assay type: functional
[3] = Lipophilicity, log P of the compound in octanol and water incubated for 1 h under shaking condition; assay type: physicochemical
Staphylococcus aureus [4] = experiment: Antimicrobial activity against methicillin-resistant Staphylococcus aureus incubated for 18 hrs by serial microdilution method; assay type: functional
Staphylococcus aureus [5] = experiment: Antimicrobial activity against Staphylococcus aureus ATCC 6538 incubated for 18 hrs by serial microdilution method; assay type: functional; details: ATCC 6538, 18 h
[6] = test system: Staphylococcus epidermidis; experiment: Antimicrobial activity against Staphylococcus epidermidis ATCC 49134 incubated for 18 hrs by serial microdilution method; assay type: functional; details: ATCC 49134, 18 h
[7] = test system: Staphylococcus epidermidis; experiment: Antimicrobial activity against Staphylococcus epidermidis ATCC 12228 incubated for 18 hrs by serial microdilution method; assay type: functional; details: ATCC 12228, 18 h

| Compound | solubility [1] [µg/mL] | MIC (Enterococcus faecalis) [µg/mL] | MIC (Escherichia coli) [µg/mL] | MIC (Staphylococcus aureus [2]) [µg/mL] | logP at 1 h [3] | MIC (Staphylococcus aureus [4]) [µg/mL] | MIC (Staphylococcus aureus [5]) [µg/mL] | MIC [6] [µg/mL] | MIC [7] [µg/mL] |
| --- | --- | --- | --- | --- | --- | --- | --- | --- | --- |
| CO[C@H]1/C=C/O[C@@]2(C)Oc3c(C)c(O)c4c(O)c(c(/C=N/Nc5ccccc5)c(O)c4c3C2=O)NC(=O)/C(C)=C\C=C\[C@H](C)[C@H](O)[C@@H](C)[C@@H](O)[C@@H](C)[C@H](OC(C)=O)[C@@H]1C | < 50 | > 8 | > 8 | 1 (≈ 1.23 µM) | 2.75 | 0.5 (≈ 0.613 µM) | 0.5 (≈ 0.613 µM) | 0.25 (≈ 0.306 µM) | 0.5 (≈ 0.613 µM) |
| CO[C@H]1/C=C/O[C@@]2(C)Oc3c(C)c(O)c4c(O)c(c(CN5CCN(C)C6(CCN(C)CC6)C5)c(O)c4c3C2=O)NC(=O)/C(C)=C\C=C\[C@H](C)[C@H](O)[C@@H](C)[C@@H](O)[C@@H](C)[C@H](OC(C)=O)[C@@H]1C | 1830 (≈ 2050 µM) | 2 (≈ 2.24 µM) | > 8 | 0.125 (≈ 0.14 µM) | 0.72 | 0.125 (≈ 0.14 µM) | 0.25 (≈ 0.28 µM) | 0.0625 (≈ 0.07 µM) | 0.0625 (≈ 0.07 µM) |
| CO[C@H]1/C=C/O[C@@]2(C)Oc3c(C)c(O)c4c(O)c(c(/C=N/Nc5ccnc6cc(Cl)ccc56)c(O)c4c3C2=O)NC(=O)/C(C)=C\C=C\[C@H](C)[C@H](O)[C@@H](C)[C@@H](O)[C@@H](C)[C@H](OC(C)=O)[C@@H]1C | < 300 | 8 (≈ 8.87 µM) | > 8 | 0.125 (≈ 0.139 µM) | 2.1 | 0.25 (≈ 0.277 µM) | 0.25 (≈ 0.277 µM) | 0.125 (≈ 0.139 µM) | 0.125 (≈ 0.139 µM) |
| CO[C@H]1/C=C/O[C@@]2(C)Oc3c(C)c(O)c4c(O)c(c(/C=N/N5CCCCC5)c(O)c4c3C2=O)NC(=O)/C(C)=C\C=C\[C@H](C)[C@H](O)[C@@H](C)[C@@H](O)[C@@H](C)[C@H](OC(C)=O)[C@@H]1C | < 300 | 0.5 (≈ 0.619 µM) | > 8 | 0.5 (≈ 0.619 µM) | 3.27 | 0.0156 (≈ 0.0193 µM) | 0.0156 (≈ 0.0193 µM) | 0.0312 (≈ 0.0387 µM) | 0.0156 (≈ 0.0193 µM) |
| CO[C@H]1/C=C/O[C@@]2(C)Oc3c(C)c(O)c4c(O)c(c(CNC5CCN(C(=O)OC(C)(C)C)CC5)c(O)c4c3C2=O)NC(=O)/C(C)=C\C=C\[C@H](C)[C@H](O)[C@@H](C)[C@@H](O)[C@@H](C)[C@H](OC(C)=O)[C@@H]1C | < 50 | 4 (≈ 4.4 µM) | > 8 | 0.5 (≈ 0.549 µM) | 2.8 | 0.5 (≈ 0.549 µM) | 0.5 (≈ 0.549 µM) | 0.25 (≈ 0.275 µM) | 0.25 (≈ 0.275 µM) |
| CCS(=O)(=O)N1CCN(Cc2c3c(O)c4c(O)c(C)c5c(c4c2O)C(=O)[C@@](C)(O/C=C/[C@H](OC)[C@@H](C)[C@@H](OC(C)=O)[C@H](C)[C@H](O)[C@H](C)[C@@H](O)[C@@H](C)/C=C/C=C(/C)C(=O)N3)O5)CC1 | 1730 (≈ 1950 µM) | > 8 | > 8 | 0.5 (≈ 0.563 µM) | 1.41 | 0.5 (≈ 0.563 µM) | 0.5 (≈ 0.563 µM) | 0.25 (≈ 0.282 µM) | 0.25 (≈ 0.282 µM) |
| CO[C@H]1/C=C/O[C@@]2(C)Oc3c(C)c(O)c4c(O)c(c(CN5CCN(c6ncccn6)CC5)c(O)c4c3C2=O)NC(=O)/C(C)=C\C=C\[C@H](C)[C@H](O)[C@@H](C)[C@@H](O)[C@@H](C)[C@H](OC(C)=O)[C@@H]1C | 50 (≈ 57.2 µM) | > 8 | > 8 | 2 (≈ 2.29 µM) | 2.02 | 1 (≈ 1.14 µM) | 1 (≈ 1.14 µM) | 0.25 (≈ 0.286 µM) | 0.25 (≈ 0.286 µM) |
| CO[C@H]1/C=C/O[C@@]2(C)Oc3c(C)c(O)c4c(O)c(c(CNC5CCCNC5=O)c(O)c4c3C2=O)NC(=O)/C(C)=C\C=C\[C@H](C)[C@H](O)[C@@H](C)[C@@H](O)[C@@H](C)[C@H](OC(C)=O)[C@@H]1C (some centres undefined) | 210 (≈ 255 µM) | > 8 | > 8 | 0.5 (≈ 0.607 µM) | 1.14 | 0.25 (≈ 0.303 µM) | 0.5 (≈ 0.607 µM) | 0.25 (≈ 0.303 µM) | 0.25 (≈ 0.303 µM) |
| CO[C@H]1/C=C/O[C@@]2(C)Oc3c(C)c(O)c4c(O)c(c(CN5CCN(C(c6ccc(F)cc6)c6ccc(F)cc6)CC5)c(O)c4c3C2=O)NC(=O)/C(C)=C\C=C\[C@H](C)[C@H](O)[C@@H](C)[C@@H](O)[C@@H](C)[C@H](OC(C)=O)[C@@H]1C | < 50 | > 8 | > 8 | 8 (≈ 8.01 µM) | 2.34 | 4 (≈ 4.01 µM) | 4 (≈ 4.01 µM) | 2 (≈ 2 µM) | 4 (≈ 4.01 µM) |
| CO[C@H]1/C=C/O[C@@]2(C)Oc3c(C)c(O)c4c(O)c(c(CN5CCC6(CC5)NCCc5ccccc56)c(O)c4c3C2=O)NC(=O)/C(C)=C\C=C\[C@H](C)[C@H](O)[C@@H](C)[C@@H](O)[C@@H](C)[C@H](OC(C)=O)[C@@H]1C | < 50 | 4 (≈ 4.39 µM) | > 8 | 8 (≈ 8.77 µM) | 2.09 | 8 (≈ 8.77 µM) | 8 (≈ 8.77 µM) | 2 (≈ 2.19 µM) | 2 (≈ 2.19 µM) |
| CO[C@H]1/C=C/O[C@@]2(C)Oc3c(C)c(O)c4c(O)c(c(CNCCN5CCCC5=O)c(O)c4c3C2=O)NC(=O)/C(C)=C\C=C\[C@H](C)[C@H](O)[C@@H](C)[C@@H](O)[C@@H](C)[C@H](OC(C)=O)[C@@H]1C | 100 (≈ 119 µM) | > 8 | > 8 | 4 (≈ 4.77 µM) | 1.24 | 2 (≈ 2.39 µM) | 2 (≈ 2.39 µM) | 1 (≈ 1.19 µM) | 2 (≈ 2.39 µM) |
| CO[C@H]1/C=C/O[C@@]2(C)Oc3c(C)c(O)c4c(O)c(c(CNC5CCN(S(C)(=O)=O)CC5)c(O)c4c3C2=O)NC(=O)/C(C)=C\C=C\[C@H](C)[C@H](O)[C@@H](C)[C@@H](O)[C@@H](C)[C@H](OC(C)=O)[C@@H]1C | < 50 | > 8 | > 8 | 0.5 (≈ 0.563 µM) | 2.34 | 1 (≈ 1.13 µM) | 1 (≈ 1.13 µM) | 0.25 (≈ 0.282 µM) | 0.5 (≈ 0.563 µM) |
| CO[C@H]1/C=C/O[C@@]2(C)Oc3c(C)c(O)c4c(O)c(c(/C=N/N5CCOCC5)c(O)c4c3C2=O)NC(=O)/C(C)=C\C=C\[C@H](C)[C@H](O)[C@@H](C)[C@@H](O)[C@@H](C)[C@H](OC(C)=O)[C@@H]1C | < 50 | > 8 | > 8 | 1 (≈ 1.23 µM) | 2.79 | 0.5 (≈ 0.617 µM) | 1 (≈ 1.23 µM) | 0.25 (≈ 0.309 µM) | 0.25 (≈ 0.309 µM) |
| CO[C@H]1/C=C/O[C@@]2(C)Oc3c(C)c(O)c4c(O)c(c(CN5CCN(Cc6c(C)cc(C)cc6C)CC5)c(O)c4c3C2=O)NC(=O)/C(C)=C\C=C\[C@H](C)[C@H](O)[C@@H](C)[C@@H](O)[C@@H](C)[C@H](OC(C)=O)[C@@H]1C | < 300 | > 8 | > 8 | 2 (≈ 2.15 µM) | 1.82 | 2 (≈ 2.15 µM) | 4 (≈ 4.31 µM) | 1 (≈ 1.08 µM) | 0.5 (≈ 0.539 µM) |
| CO[C@H]1/C=C/O[C@@]2(C)Oc3c(C)c(O)c4c(O)c(c(CN5CCC(N(C)C)CC5)c(O)c4c3C2=O)NC(=O)/C(C)=C\C=C\[C@H](C)[C@H](O)[C@@H](C)[C@@H](O)[C@@H](C)[C@H](OC(C)=O)[C@@H]1C | 1870 (≈ 2230 µM) | 8 (≈ 9.55 µM) | > 8 | 0.125 (≈ 0.149 µM) | 1.23 | 0.25 (≈ 0.298 µM) | 0.25 (≈ 0.298 µM) | 0.125 (≈ 0.149 µM) | 0.125 (≈ 0.149 µM) |
| CO[C@H]1/C=C/O[C@@]2(C)Oc3c(C)c(O)c4c(O)c(c(/C=N/NC(C)(C)C)c(O)c4c3C2=O)NC(=O)/C(C)=C\C=C\[C@H](C)[C@H](O)[C@@H](C)[C@@H](O)[C@@H](C)[C@H](OC(C)=O)[C@@H]1C | < 50 | 8 (≈ 10.1 µM) | > 8 | 2 (≈ 2.51 µM) | 2.43 | 1 (≈ 1.26 µM) | 1 (≈ 1.26 µM) | 0.5 (≈ 0.628 µM) | 1 (≈ 1.26 µM) |
